Experimental data from patent US20260294915A1, “COMBINATION THERAPY COMPRISING A MAT2A INHIBITOR AND A TOPOISOMERASE INHIBITOR, A SPLICING INHIBITOR SULFONAMIDE, OR A KIF18 INHIBITOR” (IDEAYA BIOSCIENCES, INC., priority 2023, published 2026).

How the values were obtained:
Assay in all cases: 10-day proliferation (CTG), Compound B titration + 1000 nM Compound A, Bliss (Example 2)
Assay type in all cases: cell-based
RT112/84 = system: RT112/84; design: key: GDI, -100 to 100; 0 = cell number at T0
Procedure: (§1) A 10-day proliferation assay was performed in a panel of 5 MTAP-deficient and 2 wild type non-small cell lung and bladder cancer cell lines. Optimal cell seeding for all cell lines was determined by assessing the growth over a range of seeding densities in a 384-well format to identify conditions that permitted proliferation for 10 days. Cells were then plated at the optimal seeding density and treated with 20-point, two-fold dilution series of Compound B in combination with a 1000 nM fixed concentration of Compound A. Single agent titrations for Compound A and Compound B were included for comparison. Concentrations tested for Compound A and Compound B alone or in combination ranged from 0.038 nM to 20,000 nM. A plate of cells was harvested at the time of compound addition to quantify the number of cells at the start of the combination (T0). For cell quantification, the harvested cells were lysed with Promega CellTiter-Glo (CTG) reagent according to the manufacturer's protocol and the chemiluminescent signal was detected as described in Example 1 above. Cells were incubated with the drug combinations at 37° C. with 5% CO2 for 10 days. Cells were then lysed with CTG and the chemiluminescent signal was measured.
(§2) CTG values obtained after the 10-day treatment were background subtracted and expressed as a percent of the T0 value set at 100%. Data were plotted against compound concentration and fit with a four-parameter equation to generate single agent dose response curves. Percent inhibition was determined for each combination and single agent concentration compared to a DMSO control. In addition, the overall net growth or death of the cells was calculated and reported as a growth death index (GDI) value on a scale of −100 to 100 with the midpoint (0) being the number of cells at the beginning of the combination (T0).
(§3) Predicted inhibition was calculated using (Ea+Eb)−(Ea*Eb) where E equals the effect (inhibition) of each single agent (a and b). A difference between the observed inhibition percentage and the predicted inhibition percentage greater than 10% was considered synergistic. A Bliss score was only calculated for combinations eliciting >20% growth inhibition (GDI value <80). Since Bliss is calculated based on growth inhibition, scores within cytotoxic dose ranges may not accurately reflect synergistic cytotoxicity.
(§4) Synergy was measured across the Compound B titration with 1000 nM Compound A by Bliss Independence analysis. Bliss scores >10 are indicated by “*” and are considered synergistic. […] Synergy as reported using Bliss may be underrepresented within cytotoxic dose ranges. Growth death index values are shown for the combination titration and each single agent Compound A (Cmpd A) and Compound B (Cmpd B) on a scale of −100 to 100 with the midpoint (0) being the number of cells at the beginning of the combination (T0).

UMUC11 = system: UMUC11; design: key: GDI, -100 to 100; 0 = cell number at T0
Procedure: as §1, §2, §3, §4

TCCSUP = system: TCCSUP; design: key: GDI on scale −100 to 100; 0 = cell number at T0
Procedure: as §1, §2
as §3, with “Synergistic growth inhibition was assessed using the Bliss Independence model for each point of the Compound B titration in combination with 1000 nM Compound A. The observed growth inhibition at each point was compared to the predicted inhibition based on the additive activity of each single agent. Predicted” for “Predicted”
(§5) Synergy was measured across the Compound B titration with 1000 nM Compound A by Bliss Independence analysis. Bliss scores >10 are indicated by “*” and are considered synergistic. […] Synergy as reported using Bliss may be underrepresented within cytotoxic dose ranges. Growth death index values are shown for the combination titration and each single agent Compound A (Cmpd A) and Compound B (Cmpd B) on a scale of −100 to 100 with the midpoint (0) being the number of cells at the beginning of the combination (T0). Bliss and GDI values are shown for five MTAP-deficient cell lines: NCI-1H520 (6A), TCCSUP (6B).

NCI-H520 = system: NCI-H520; design: key: GDI on scale −100 to 100; 0 = cell number at T0
Procedure: as §1, §2
as §3, with “Synergistic growth inhibition was assessed using the Bliss Independence model for each point of the Compound B titration in combination with 1000 nM Compound A. The observed growth inhibition at each point was compared to the predicted inhibition based on the additive activity of each single agent. Predicted” for “Predicted”
as §5

[1] = Cmpd B 0.04 nM, combo: + 1000 nM Cmpd A
[2] = Cmpd B 0.1 nM, combo: + 1000 nM Cmpd A
[3] = Cmpd B 0.2 nM, combo: + 1000 nM Cmpd A
[4] = Cmpd B 0.3 nM, combo: + 1000 nM Cmpd A
[5] = Cmpd B 0.6 nM, combo: + 1000 nM Cmpd A
[6] = Cmpd B 1.2 nM, combo: + 1000 nM Cmpd A
[7] = Cmpd B 2.4 nM, combo: + 1000 nM Cmpd A
[8] = Cmpd B 4.9 nM, combo: + 1000 nM Cmpd A
[9] = Cmpd B 9.8 nM, combo: + 1000 nM Cmpd A
[10] = Cmpd B 19.5 nM, combo: + 1000 nM Cmpd A
[11] = Cmpd B 39.1 nM, combo: + 1000 nM Cmpd A
[12] = Cmpd B 78.1 nM, combo: + 1000 nM Cmpd A
[13] = Cmpd B 156.3 nM, combo: + 1000 nM Cmpd A
[14] = Cmpd B 312.5 nM, combo: + 1000 nM Cmpd A
[15] = Cmpd B 625 nM, combo: + 1000 nM Cmpd A
[16] = Cmpd B 1250 nM, combo: + 1000 nM Cmpd A
[17] = Cmpd B 2500 nM, combo: + 1000 nM Cmpd A
[18] = Cmpd B 5000 nM, combo: + 1000 nM Cmpd A
[19] = Cmpd B 10000 nM, combo: + 1000 nM Cmpd A
[20] = Cmpd B 20000 nM, combo: + 1000 nM Cmpd A

## Cc1cc(NC(=O)c2ccc(NS(=O)(=O)CCO)cc2N2CCC3(CC2)CC3)nc(N2CCC(F)(F)CC2)n1 [Compound B, N-(2-(4,4-difluoropiperidin-1-yl)-6-methylpyrimidin-4-yl)-4-((2-hydroxyethyl)sulfonamido)-2-(6-azaspiro[2.5]octan-6-yl)benzamide]
RT112/84; [1]
  GDI: 100
RT112/84; [2]
  GDI: 100
RT112/84; [3]
  GDI: 100
RT112/84; [4]
  GDI: 100
RT112/84; [5]
  GDI: 100
RT112/84; [6]
  GDI: 100
RT112/84; [7]
  GDI: 100
RT112/84; [8]
  GDI: 100
RT112/84; [9]
  GDI: 100
RT112/84; [10]
  GDI: 100
RT112/84; [11]
  GDI: 100
RT112/84; [12]
  GDI: 100
RT112/84; [13]
  GDI: 63
RT112/84; [14]
  GDI: 30
RT112/84; [15]
  GDI: 24
RT112/84; [16]
  GDI: 31
RT112/84; [17]
  GDI: 31
RT112/84; [18]
  GDI: 33
RT112/84; [19]
  GDI: 2
RT112/84; [20]
  GDI: −86
UMUC11; [1]
  GDI: 100
UMUC11; [2]
  GDI: 100
UMUC11; [3]
  GDI: 100
UMUC11; [4]
  GDI: 100
UMUC11; [5]
  GDI: 100
UMUC11; [6]
  GDI: 100
UMUC11; [7]
  GDI: 100
UMUC11; [8]
  GDI: 100
UMUC11; [9]
  GDI: 100
UMUC11; [10]
  GDI: 100
UMUC11; [11]
  GDI: 100
UMUC11; [12]
  GDI: 100
UMUC11; [13]
  GDI: 100
UMUC11; [14]
  GDI: 87
UMUC11; [15]
  GDI: 72
UMUC11; [16]
  GDI: 70
UMUC11; [17]
  GDI: 74
UMUC11; [18]
  GDI: 63
UMUC11; [19]
  GDI: 32
UMUC11; [20]
  GDI: −88
TCCSUP; [1]
  GDI: 100
TCCSUP; [2]
  GDI: 100
TCCSUP; [3]
  GDI: 100
TCCSUP; [4]
  GDI: 100
TCCSUP; [5]
  GDI: 100
TCCSUP; [6]
  GDI: 100
TCCSUP; [7]
  GDI: 100
TCCSUP; [8]
  GDI: 100
TCCSUP; [9]
  GDI: 100
TCCSUP; [10]
  GDI: 100
TCCSUP; [11]
  GDI: 100
TCCSUP; [12]
  GDI: 76
TCCSUP; [13]
  GDI: 38
TCCSUP; [14]
  GDI: 15
TCCSUP; [15]
  GDI: 8
TCCSUP; [16]
  GDI: 10
TCCSUP; [17]
  GDI: 11
TCCSUP; [18]
  GDI: 6
TCCSUP; [19]
  GDI: −5
TCCSUP; [20]
  GDI: −95
NCI-H520; [1]
  GDI: 100
NCI-H520; [2]
  GDI: 100
NCI-H520; [3]
  GDI: 100
NCI-H520; [4]
  GDI: 100
NCI-H520; [5]
  GDI: 100
NCI-H520; [6]
  GDI: 100
NCI-H520; [7]
  GDI: 100
NCI-H520; [8]
  GDI: 100
NCI-H520; [9]
  GDI: 100
NCI-H520; [10]
  GDI: 100
NCI-H520; [11]
  GDI: 100
NCI-H520; [12]
  GDI: 100
NCI-H520; [13]
  GDI: 100
NCI-H520; [14]
  GDI: 85
NCI-H520; [15]
  GDI: 77
NCI-H520; [16]
  GDI: 92
NCI-H520; [17]
  GDI: 92
NCI-H520; [18]
  GDI: 61
NCI-H520; [19]
  GDI: 17
NCI-H520; [20]
  GDI: −57

## Nc1nc(=O)n(-c2ccccc2Cl)c2nc(C(F)(F)F)ccc12 [Compound A]
RT112/84; single agent, 1000 nM Cmpd A
  GDI: 60
UMUC11; single agent, 1000 nM Cmpd A
  GDI: 92
TCCSUP; single agent, 1000 nM Cmpd A
  GDI: 88
NCI-H520; single agent, 1000 nM Cmpd A
  GDI: 100
